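Each compound was tested at five concentrations against cells in 96-well plates for 48 hours. GI50: concentration for 50% inhibition of growth.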 Active and inactive are the calls of the source. Rule as the data show it: active = GI50 up to about 1.1 µM and inactive = higher.
Columns and labels:
Assay in all cases: DTP human tumour cell line panel, 48 h
MDA-N = system: MDA-N
HCT-15 = system: HCT-15
TK-10 = system: TK-10
UO-31 = system: UO-31
M14 = system: M14
OVCAR-8 = system: OVCAR-8
SK-MEL-28 = system: SK-MEL-28
K562 = system: K562
NCI-H226 = system: NCI-H226
OVCAR-5 = system: OVCAR-5
SK-MEL-5 = system: SK-MEL-5
HT-29 = system: HT-29
IGROV-1 = system: IGROV-1
SF-268 = system: SF-268
SR = system: SR
Hs-578T = system: Hs-578T
MDA-MB-435 = system: MDA-MB-435
SNB-19 = system: SNB-19
HOP-62 = system: HOP-62
SF-539 = system: SF-539

Row | SMILES | GI50 (MDA-N) | GI50 (HCT-15) | GI50 (TK-10) | GI50 (UO-31) | GI50 (M14) | GI50 (OVCAR-8) | GI50 (SK-MEL-28) | GI50 (K562) | GI50 (NCI-H226) | GI50 (OVCAR-5) | GI50 (SK-MEL-5) | GI50 (HT-29) | GI50 (IGROV-1) | GI50 (SF-268) | GI50 (SR) | GI50 (Hs-578T) | GI50 (MDA-MB-435) | GI50 (SNB-19) | GI50 (HOP-62) | GI50 (SF-539)
1 | Clc1ccc(C2C3COc4ccccc4C3=NN2c2ccccc2)cc1 (stereo unspecified) | 22.8 µM (inactive) | 17.9 µM | > 100 µM (inactive) | > 100 µM (inactive) | 96.8 µM (inactive) | > 69.5 µM (inactive) | 99.5 µM (inactive) | 3.19 µM (inactive) | 30 µM (inactive) | > 100 µM (inactive) | > 82.8 µM (inactive) | 29.4 µM (inactive) | > 69 µM (inactive) | 44.7 µM (inactive) | 0.198 µM (active) | 54.2 µM (inactive) | 36.5 µM (inactive) | > 46.9 µM (inactive) | > 100 µM (inactive) | 34.4 µM (inactive)
2 | Cc1[nH]c2ccccc2c1/C=N/c1ccc(/N=C/c2c(C)[nH]c3ccccc23)cc1 | 30.5 µM (inactive) | 32 µM | 90.4 µM (inactive) | 77.4 µM (inactive) | 71.3 µM (inactive) | 29.7 µM (inactive) | 97.5 µM (inactive) | 21.2 µM (inactive) | 14 µM (inactive) | > 100 µM (inactive) | 17.2 µM (inactive) | 34 µM (inactive) | 49.9 µM (inactive) | 50 µM (inactive) | 19.2 µM (inactive) | 47 µM (inactive) | 19.7 µM (inactive) | 61.9 µM (inactive) | 25.1 µM (inactive) | 21.4 µM (inactive)
3 | CCOC(=O)C(NC(=O)c1ccco1)(Nc1nc2ccc(OCC)cc2s1)C(F)(F)F (stereo unspecified) | 21.6 µM (inactive) | 22.9 µM | 50.1 µM (inactive) | 4.22 µM (inactive) | 32.6 µM (inactive) | 43.9 µM (inactive) | 97.3 µM (inactive) | 27.6 µM (inactive) | 35.1 µM (inactive) | 34.1 µM (inactive) | 19.4 µM (inactive) | 32.3 µM (inactive) |  | 41.2 µM (inactive) | 19.3 µM (inactive) | 38.7 µM (inactive) | 24.4 µM (inactive) | 51.4 µM (inactive) |  | 43.2 µM (inactive)
4 | N#CC(c1ccccc1)N1CCCN(C(C#N)c2ccccc2)C1c1ccccc1O (stereo unspecified) | > 100 µM (inactive) | > 100 µM | > 100 µM (inactive) | > 100 µM (inactive) | > 100 µM (inactive) | > 100 µM (inactive) | > 100 µM (inactive) | > 100 µM (inactive) | > 100 µM (inactive) | > 100 µM (inactive) | > 100 µM (inactive) | 55.8 µM (inactive) | > 100 µM (inactive) | > 100 µM (inactive) | > 100 µM (inactive) | > 100 µM (inactive) | > 100 µM (inactive) | > 100 µM (inactive) | > 100 µM (inactive) | 52.1 µM (inactive)
5 | N#Cc1c(-c2ccccc2)cc(Nc2ccc(Cl)cc2)n2c1nc1ccccc12 | 2.42 µM (inactive) | 3.37 µM | 4.45 µM (inactive) | 2.49 µM (inactive) | 4.23 µM (inactive) | 2.96 µM (inactive) | > 55 µM (inactive) | 1.49 µM (inactive) | 4.45 µM (inactive) | 3.9 µM (inactive) | 1.46 µM (inactive) | 2.14 µM (inactive) | 1.36 µM (inactive) | 3.71 µM (inactive) | 2.73 µM (inactive) | 1.59 µM (inactive) | 2.99 µM (inactive) | 2.93 µM (inactive) | 3.67 µM (inactive) | 4.39 µM (inactive)
6 | CCOC1OC(=O)c2cc3ccc4c(c3c(-c3ccc5c(c3)OCO5)c21)OCO4 (stereo unspecified) | 1.9 µM (inactive) | 4.85 µM | 4.75 µM (inactive) | 22 µM (inactive) | 3.4 µM (inactive) | 35.7 µM (inactive) | 9.53 µM (inactive) | 7.6 µM (inactive) | 4.71 µM (inactive) | 14.5 µM (inactive) | 2.72 µM (inactive) | 4.76 µM (inactive) | 4.6 µM (inactive) | 5.46 µM (inactive) | 2.04 µM (inactive) | 3.2 µM (inactive) | 3.04 µM (inactive) | 8.95 µM (inactive) | 4.63 µM (inactive) | 1.42 µM (inactive)
7 | Cc1nnc(N/N=C2/C(=O)Nc3ccccc32)nc1O | > 100 µM (inactive) | > 100 µM | > 100 µM (inactive) | > 100 µM (inactive) | > 100 µM (inactive) | > 100 µM (inactive) | > 100 µM (inactive) | > 100 µM (inactive) | > 100 µM (inactive) | > 100 µM (inactive) |  | > 100 µM (inactive) | > 100 µM (inactive) | > 100 µM (inactive) | > 100 µM (inactive) | > 100 µM (inactive) | > 100 µM (inactive) | > 100 µM (inactive) | > 100 µM (inactive) | > 100 µM (inactive)
8 | CSC(=O)/C=C1\SS/C(=C\C(=O)SC)S1 | 2.51 µM (inactive) | 2.06 µM | 4.93 µM (inactive) | 2.43 µM (inactive) | 2.09 µM (inactive) | 3.44 µM (inactive) | 2.42 µM (inactive) | 2.79 µM (inactive) | 1.77 µM (inactive) | 3.98 µM (inactive) | 2.65 µM (inactive) | 2.47 µM (inactive) | 3.37 µM (inactive) | 2.49 µM (inactive) | 1.96 µM (inactive) | 3.05 µM (inactive) | 2.29 µM (inactive) | 6.92 µM (inactive) | 7.35 µM (inactive) | 2.72 µM (inactive)
9 | O=C1/C(=C\Oc2ccc(F)cc2)N2CCC1CC2 | 47.2 µM (inactive) | 70.6 µM | 55.3 µM (inactive) | 45.1 µM (inactive) | > 100 µM (inactive) | 85.1 µM (inactive) | 87.1 µM (inactive) | 32.7 µM (inactive) | 35.5 µM (inactive) | > 100 µM (inactive) | 63.5 µM (inactive) | 60.1 µM (inactive) | 88.3 µM (inactive) | 89.5 µM (inactive) | 16.4 µM (inactive) | 28.7 µM (inactive) | 40.5 µM (inactive) | 56.6 µM (inactive) | > 100 µM (inactive) | > 100 µM (inactive)
10 | CN1CCN(CC(=O)N2CCCn3c2nc2ccccc2c3=O)CC1 | > 100 µM (inactive) | > 100 µM | > 100 µM (inactive) | > 100 µM (inactive) | > 100 µM (inactive) | > 100 µM (inactive) |  | > 100 µM (inactive) | 52.1 µM (inactive) | > 100 µM (inactive) | > 100 µM (inactive) | > 100 µM (inactive) | > 100 µM (inactive) | > 100 µM (inactive) | > 100 µM (inactive) | > 100 µM (inactive) | > 100 µM (inactive) | > 100 µM (inactive) | > 100 µM (inactive) | > 100 µM (inactive)
11 | Nc1nc(=O)n(C2CC(O)C(CO)O2)c2nc(-c3ccc(-c4ccccc4)cc3)cnc12 (stereo unspecified) | 58.2 µM (inactive) | > 100 µM | > 100 µM (inactive) | > 100 µM (inactive) | > 100 µM (inactive) | 67.9 µM (inactive) |  | 38 µM (inactive) | 25.6 µM (inactive) | > 100 µM (inactive) | 15.9 µM (inactive) | > 100 µM (inactive) | > 100 µM (inactive) | 30.7 µM (inactive) | 27.7 µM (inactive) | 36.3 µM (inactive) | 97.7 µM (inactive) | 29 µM (inactive) | 27.2 µM (inactive) | 30 µM (inactive)
12 | COc1ccc2c(c1)N(CCC1CCCCN1C)c1ccccc1S2 (stereo unspecified) [OXYRIDAZINE] | 12 µM (inactive) | 13.4 µM | 14.5 µM (inactive) |  | 3.13 µM (inactive) | 15 µM (inactive) | 3.58 µM (inactive) | 4.37 µM (inactive) | 23.6 µM (inactive) | 15.2 µM (inactive) | 10.8 µM (inactive) | 5.12 µM (inactive) | 12.5 µM (inactive) | 12.4 µM (inactive) | 5.73 µM (inactive) | 10.3 µM (inactive) | 7.62 µM (inactive) | 15.2 µM (inactive) | 15.8 µM (inactive) | 23.1 µM (inactive)
13 | Cc1ccc(S(=O)(=O)NC(CCC(=O)NNc2ccccc2)C(=O)NNc2ccccc2)cc1 (stereo unspecified) | 17.2 µM (inactive) | 15.4 µM | 1.95 µM (inactive) | 6.1 µM (inactive) | 9.53 µM (inactive) | 6.43 µM (inactive) |  | 85.9 µM (inactive) | > 100 µM (inactive) | 46.8 µM (inactive) | 98.4 µM (inactive) | 13.2 µM (inactive) | 91 µM (inactive) | 46.8 µM (inactive) | 18.9 µM (inactive) | 64.1 µM (inactive) | > 100 µM (inactive) | > 100 µM (inactive) | > 100 µM (inactive) | 17.5 µM (inactive)
14 | COc1cc(C(=O)N(C(=S)OCc2ccccn2)c2ccccc2)cc(OC)c1OC | 96.4 µM (inactive) | 39.6 µM | 70.8 µM (inactive) | 25.4 µM (inactive) | > 100 µM (inactive) | 62.2 µM (inactive) | 92.3 µM (inactive) | 41.1 µM (inactive) | 26.1 µM (inactive) | 49.2 µM (inactive) | 35.2 µM (inactive) | 29.9 µM (inactive) | 16.3 µM (inactive) | > 100 µM (inactive) | 8.47 µM (inactive) | 53.7 µM (inactive) | > 100 µM (inactive) | > 100 µM (inactive) |  | 26.5 µM (inactive)
15 | CO[C@H]1SC[C@H](OC(C)=O)[C@H](OC(C)=O)[C@H]1OC(C)=O | > 100 µM (inactive) | > 100 µM | > 100 µM (inactive) | > 100 µM (inactive) | > 100 µM (inactive) | > 100 µM (inactive) | > 100 µM (inactive) | > 100 µM (inactive) | > 100 µM (inactive) |  | > 100 µM (inactive) | > 100 µM (inactive) | > 100 µM (inactive) | > 100 µM (inactive) | > 100 µM (inactive) | > 100 µM (inactive) | > 100 µM (inactive) | > 100 µM (inactive) | > 100 µM (inactive) | > 100 µM (inactive)
